Assay results: patent publication US20060069157A1, “Method of ameliorating or abrogating the effects of a neurodegenerative disorder, such as Huntington's disease, by sodium butyrate chemotherapy” (U.S. DEPARTMENT OF VETERANS AFFAIRS, priority 2004, published 2006)
Entries after “also recorded” stand apart in the source; their conditions may differ.

Key:
[1] = tested on: R6/2 transgenic mouse model of HD; assay: Rotarod motor performance in R6/2 mice; type: in vivo; conditions: at 90 days, vs PBS-treated R6/2 mice
Description: (§1) Intraperitoneal Dosing: Based upon previous studies (Egorin et al., 1999), a dose response study was performed, treating groups of wild type mice (n=10) and littermate R6/2 mice (n=20) with 100, 200, 400, 600, 1,200, 5,000, and 10,000 mg/kg daily intraperitoneal injection (100 Êl) of sodium butyrate (Acros Organics/Fisher Scientific) dissolved in PBS and made fresh daily. Control groups were treated with PBS injection or untreated. Approximately 240 mice were used for behavioral and survival analyses.
(§2) Clinical Assessment: Both motor performance and body weight were measured throughout the study. Training sessions were given on days 21 and 22 to acclimate the mice to the rotarod apparatus (Columbus Instruments, Columbus, Ohio). Motor performance (constant rotation at 16 rpm) was assessed weekly from 23-63 days of age and twice weekly from 63 days of age in the sodium butyrate-treated, PBS-treated R6/2 mice, and wild type littermate control mice. Three 60 sec trials were given during each session and averaged. Body weights were recorded twice weekly at the same time of day in all groups.
Statistics: The data are expressed as the mean+standard error of the mean. Statistical comparisons of rotarod, weight data, and histology data were compared by ANOVA or repeated measures ANOVA. Survival data was analyzed by the Kaplan-Meier survival curves.

Body weight in R6/2 mice = type: in vivo, mouse; conditions: same plateau in PBS-treated mice
Description: as §1, §2

[2] = tested on: R6/2 transgenic mouse model of HD; assay: Neuropathological evaluation (brain weight, gross atrophy, striatal neuron area) at 90 days; type: in vivo
Description: Neuropathological Evaluation of Sodium Butyrate Treatment: Beginning at 21 days, R6/2 transgenic mice and wild-type littermate control mice were treated daily with the most optimal dose of sodium butyrate (1.2 g/kg), as determined by survival studies, or PBS intraperitoneal injections. Groups of 10 animals from each treatment paradigm were deeply anesthetized and transcardially perfused with 4% buffered paraformaldehyde at 90 days of age. Forty mice were used for neuropathological analysis, as previously described (Ferrante et al., 2002). Serially cut tissue sections were stained for Nissl substance and immunostained for huntingtin (monoclonal huntingtin antibody, 1:1,000 dilution, Chemicon International Inc.) and for acetylated histone 3 and histone 4 (dilution, 1:1,000, Upstate Biotechnology, Lake Placid, N.Y.), using a previously reported conjugated secondary antibody method in murine brain tissue samples (Ferrante et al., 2002). Specificity for the antisera used in this study was examined in each immunochemical experiment to assist with the interpretation of the results. Preabsorption with excess target proteins, omission of the primary antibodies, and omission of secondary antibodies were performed to determine the amount of background generated from the detection assay.
Stereology/Quantitation: Serial-cut coronal tissue-sections beginning from the most rostral segment of the neostriatum to the level of the anterior commissure (Inter aural 5.34 mm/Bregma 1.54 mm to Inter aural 3.7 mm/Bregma −0.10 mm), were used for huntingtin aggregate analysis. Unbiased stereological counts of huntingtin-positive aggregates ([…]) were obtained from the neostriatum in 10 mice each from sodium butyrate-treated (1.2 g/kg) and PBS-treated R6/2 mice at 90 days using Neurolucida Stereo Investigator software (Microbrightfield, Colchester, Vt.). The total areas of the rostral neostriatum were defined in serial sections in which counting frames were randomly sampled. The optical dissector method was employed estimating the number of huntingtin-positive aggregates. Striatal neuron areas were analyzed by microscopic videocapture using a Windows-based image analysis system for area measurement (Optimas, Bioscan Incorporated, Edmonds, Wash.). The software automatically identifies and measures profiles. All computer identified cell profiles were manually verified as neurons and exported to Microsoft Excel. Cross-sectional areas were analyzed using Statview.

[3] = tested on: acetylated histone H3 and acetylated histone H4; assay: Histone acetylation assay (Western blot, whole brain); type: in vivo, mouse
Description: Histone Acetylation Assay: At 42 days, groups of 10 R6/2 mice and littermate wild-type control mice were treated with daily with the most optimal dose of sodium butyrate (1.2 g/kg), as determined by survival studies, or PBS via intraperitoneal injections for two weeks. The mice were euthanized at 56 days of age and the brains rapidly frozen and stored at −80 βC. Histone acetylation was determined, using a previously reported Western analysis method (Warrel et al., 1998). Histones were isolated from sodium butyrate treated and untreated whole brains. Western blot analysis for histone acetylation was performed using acetylated histone H3 and acetylated histone H4 antibodies (Upstate Biotechnology, Lake Placid, N.Y.). Protein levels were determined via Coomassie Protein Assay (Pierce, Rockford, Ill.). Each of the sample measurements was carried out twice, with the investigator performing the assays (JKK) blind to genotype and treatment group.

## CCCC(=O)[O-].[Na+] [sodium butyrate]
[1]; 400 mg/kg
  percentile increase in rotarod performance: 24.0%
[1]; 600 mg/kg
  percentile increase in rotarod performance: 27.5%
[1]; 1,200 mg/kg
  percentile increase in rotarod performance: 34.9%
Body weight in R6/2 mice
  body weight plateau until death: 19-20 gms
[2]; 1.2 g/kg/d i.p. from 21 days, vs wild type littermates (unsupplemented R6/2: 18.9%)
  brain weight loss: 5.6%
[2]; 1.2 g/kg/d i.p., Wt 138.9, PBS-treated R6/2 57.1, p<0.01 vs PBS
  striatal neuron area: 113.5 ± 14.2 _m2
[2]; 1.2 g/kg/d i.p., vs PBS-treated R6/2
  reduction of striatal neuron atrophy: one fold
[2]; 1.2 g/kg/d i.p., vs PBS-treated/untreated R6/2
  gross brain atrophy, ventricular hypertrophy: reduced gross brain atrophy and ventricular enlargement; also recorded: ameliorated these gross neuropathological sequelae
[3]; 600 mg/kg/d vs 1.2 g/kg/d
  difference in increased acetylation of H3 and H4 between doses: did not observe any difference
[3]; 1.2 g/kg/d i.p. for two weeks from 42 days, R6/2 brain at 56 days
  H3 and H4 acetylation (Western blot): marked increase
